Test results from US20130224754A1, “METHOD FOR THE SELECTION OF COMPOUNDS USEFUL FOR THE TREATMENT OF PSYCHIATRIC AND NEURODEGENERATIVE DISEASES” (UNIVERSITA' DEGLI STUDI DI TRIESTE, priority 2010, published 2013).
Values belong to the molecule of their own block, whether it stands above or below them.

Assays:
[1] = system: SH-SY5Y human neuroblastoma cells; assay: MTT viability assay; format: cell-based; details: 3 h; ACh 10 μM, NE 50 uM, DOPA 40 μM, BDNF and NT3 both 50 ng/ml
Procedure: Using a 96-well plate 100 μl of SHSY-5Y cells were distributed per well, maintaining them overnight at 37° C. in a 5% CO2-humified incubator. […] After that, 20 μl of aseptically prepared 5 mg/mL MTT was added, adding it also to an additional quadruplicate of wells without cells, as an internal control. The cells were again incubated at 37° C. this time for 2 h, allowing the formation of formazan crystals by the mitochondrial dehydrogenase of viable cells. Afterwards, the media was carefully removed, and the formazan crystals were solubilised by adding 200 μl of MTT solvent per well, a solution that contains acidified isopropanol (4 mM HCl and 0.1% Nondet P-40 in isopropanol). The crystals were further dissolved by gently pipetting the solution up and down being the resulting purple solution spectrophotometrically measured at 570 nm. An increased absorbance can therefore be directly correlated to the cell number, allowing one to determine the cellular viability after a specific treatment. Since the method is dependent on the physiological state of the cells, the assay was always performed after checking the cellular morphology prior treatment. Moreover, two controls were performed: (1) untreated cells, an internal control to verify the drug-dependent effect; and (2) KCl 200 mM treated cells, in which a cytotoxic concentration was used, thus allowing us to verify the assay fidelity.

[2] = system: BDNF 5′UTR splice variants; assay: Dual luciferase assay, response of BDNF 5′UTR splice variants to agonists (collective statements); details: undifferentiated SH-SY5Y; for translation of the other BDNF transcripts (other than exon2C): DHPG 50 μM, AMPA 30 μM, NMDA 30 μM
Procedure: (§3) Plasmids were transfected into SH-SY5Y cells using lipofectamine 2000 (Invitrogen) to obtain a transient transfection. The relative quantity of DNA to lipofectamine has been determined and the optimal ratio was found at 0.2 μg of DNA and 0.5 μl of lipofectamine for each well of a 96 multiwell plate. At the time of transfection SH-SY5Y cells were around 70-75% of confluency. According to the Promega protocol for luciferase activity measurements, each construct-containing Fluc was transfected together with the normalizing Rluc construct with a 10:1 ratio (0.2 μg Fluc containing vector together with 0.02 μg of pN1-Rluc vector). The DNA (0.2 μg) was mixed with 25 μl of native MEM medium and incubated for 5 minutes at room temperature. The two solutions were then mixed and incubated for 20 minutes at room temperature to allow the formation of DNA-containing micelles. Then, 50 μl of such solution were added in each well to cells and incubated for 24 h at 37° C. After 24 h transfection, the medium was removed and replaced with fresh culture medium.
(§4) To determine the effects of receptors activation on translation controlled by the different BDNF 5′UTR sequences, cells were treated for 3 hours with 50 mM KCl to induce generalized cell depolarization.
(§5) Luciferase assay was performed according to the manufacturer's instructions (Promega). At the time of luciferase assay, the growth medium was removed from the cultured cells and a sufficient volume of PBS 1× was applied to wash the surface of the culture vessel. Then, the PBS 1× solution was completely removed and the cells lysis was started by adding 20 μl of PLB (passive lysis buffer) into each well. After adding the PLB solution, the culture plate was placed on an orbital shaker with gentle shaking at room temperature for 15 minutes to cover uniformly the cell monolayer with PLB. After lysis, 100 μl of Luciferase Assay Reagent II (LARII) were dispensed in each well and Firefly luciferase activity was measured using the Glo Max Multi luminometer with two injectors (Promega Corporation).
(§6) After quantifying the Firefly luminescence, this reaction was quenched and simultaneously, the Renilla luciferase reaction was initiated by adding 100 μl Stop & Glo Reagent (Promega) to the same well. Then, Renilla luciferase activity was measured using the Glo Max Multi luminometer with two injectors (Promega Corporation).
(§7) One day prior transfection, undifferentiated neuro-blastoma SH-SY5Y cells were seeded into a 96-well white plate with clear bottom (PBI International) at a confluency of 50-60% and cultured overnight. Plasmids containing the different BDNF 5′UTR exons were then transiently transfected into SH-SY5Y cells using Lipofectamine™ 2000 (Invitrogen) at high cell density (70-75%), according to the manufacturer's protocol. […]

[3] = system: pN1-exon6-Fluc-3′UTR long construct; assay: Inhibition of KCl-induced translation of the ex6-Fluc-3′UTRlong construct; format: cell-based, rat; details: for prevention of KCl-induced increase in translation of pN1-exon6-Fluc-3′UTR long: 30 min pre-treatment prior 3 h 20 mM KCl, rapamycin 20 nM, U0126 50 μM, KN62 20 μM, GF 50 nM, Aurora A inhibitor 10 μM, PP2 20 μM
From the text: The present invention can be used not only to identify compounds able to increase BDNF translation, but also to screen for potential inhibitors of BDNF protein production. To this aim a series of vectors were constructed which recapitulate the physiological regulation of BDNF translation in that the firefly luciferase gene was flanked both by 5′UTR regions as well as 3′UTR. These constructs included:
Inhibitors of 5′UTR regulation are: rapamycin (rap)=mTOR inhibitor (Takei, Inamura et al. 2004); U0126=MEK inhibitor (Kanhema, Dagestad et al. 2006); GF=PKC inhibitor (Heikkila, Jalava et al. 1993).
Inhibitors of 3′UTR regulation: KN62=CaMKII inhibitor (Lu, Hidaka et al. 1996); AuA=Aurora A inhibitor (Soncini, Carpinelli et al. 2006) and PP2=Src tyrosine kinase inhibitor (Perkinton, Sihra et al. 1999).
Aurora kinase A inhibitor (PHA-680632) was a gift from Nerviano Medical Sciences S.r.l. (Milan, Italy); PP2 (1-tert-butyl-3-(4-chlorophenyl)-1H-pyrazolo[3-4]pyrimidin-4-amine), rapamycin was purchased from Ascent Scientific (Bristol, UK), Bisindolylmaleimide I (2-[1-(3-dimethylaminopropyl)-1H-indol-3-yl]-3-(1H-indol-3yl)-maleimide, GF 109203X, Gö 6850), KN62 (1-[N,O-bis-5-isoquinolinesulfonyl)-N-methyl-L-tyrosyl]-4-phenylpiperazine), U0126 (1,4-diamino-2,3-dicyano-1,4-bis(2-aminophenylthio)butadiene), and U0124 (1,4-Diamino-2,3-dicyano-1,4-bis(methylthio)butadiene) from Calbiochem (Damstadt, Germany).
Relative luciferase units (RLU) describe in absolute values for the Fluc/Rluc (F/R) ratio obtained from each condition—basal, 3 h of 20 mM KCl, 30 min of treatment—rapamycin 20 nM, U0126 50 μM, KN62 20 μM, GF 50 nM, Aurora A inhibitor 10 μM or PP2 20 μM, prior 3 h of depolarization. A value of 1.0 was assumed for the basal condition. The represented data (mean+standard error) corresponds to three independent experiments in quadruplicate ***, P<0.001; **, P<0.01; *, P<0.05, One Way Anova followed by a multiple comparison versus Fluc construct procedure with Holm-Sidak's method.

[4] = system: BDNF 3′UTR-long; assay: Luciferase assay, pN1-Fluc-3′long in SH-SY5Y cells; format: cell-based, rat; details: transfected SHSY-5Y; KCl 50 mM, GLU 20 μM, DHPG 50 μM, AMPA 30 μM, NMDA 30 μM, AcH 30 μM, NE 50 μM, DOPA 40 μM, 5-HT 50 μM, BDNF 50 ng/μl
Procedure: (§1) Basal and drug-induced translation of a luciferase reporter gene driven by BDNF short and long 3′UTR or coding region (CDS) sequences were measured.
(§2) BDNF ([…]) was specifically employed for the stimulation of the 3′UTR long containing plasmid and NT3 ([…]) for 3′UTR short containing plasmid.

[5] = system: rat BDNF 5′UTR exon 2B; assay: Dual luciferase assay, pN1-exon2B-Fluc in SH-SY5Y cells; format: cell-based; details: undifferentiated SH-SY5Y, 24 h after transfection; KCL 50 mM, BDNF 50 ng/ml, GLU 20 μM, NE 50 μM
Procedure: as §3, §4, §5, §6, §7

[6] = system: rat BDNF 5′UTR exon 4; assay: Dual luciferase assay, pN1-exon4-Fluc in SH-SY5Y cells; format: cell-based; details: undifferentiated SH-SY5Y; KCL 50 mM, BDNF 50 ng/ml, GLU 20 μM, NE 50 μM, 5-HT 50 μM
Procedure: as §3, §4, §5, §6, §7

[7] = system: rat BDNF 5′UTR exon 1; assay: Dual luciferase assay, pN1-exon1-Fluc in SH-SY5Y cells; format: cell-based; details: undifferentiated SH-SY5Y, 24 h after transfection; KCL 50 mM, BDNF 50 ng/ml, GLU 20 μM, NE 50 μM
Procedure: as §3, §4, §5, §6, §7

[8] = system: rat BDNF 5′UTR exon 3; assay: Dual luciferase assay, pN1-exon3-Fluc in SH-SY5Y cells; format: cell-based; details: undifferentiated SH-SY5Y; KCL 50 mM
Procedure: (§8) Plasmids were transfected into SH-SY5Y cells using lipofectamine 2000 (Invitrogen) to obtain a transient transfection. The relative quantity of DNA to lipofectamine has been determined and the optimal ratio was found at 0.2 μg of DNA and 0.5 μl of lipofectamine for each well of a 96 multiwell plate. At the time of transfection SH-SY5Y cells were around 70-75% of confluency. According to the Promega protocol for luciferase activity measurements, each construct-containing Fluc was transfected together with the normalizing Rluc construct with a 10:1 ratio (0.2 μg Fluc containing vector together with 0.02 μg of pN1-Rluc vector). The DNA (0.2 μg) was mixed with 25 μl of native MEM medium and incubated for 5 minutes at room temperature. […]
(§9) Luciferase assay was performed according to the manufacturer's instructions (Promega). […] After lysis, 100 μl of Luciferase Assay Reagent II (LARII) were dispensed in each well and Firefly luciferase activity was measured using the Glo Max Multi luminometer with two injectors (Promega Corporation).
(§10) After quantifying the Firefly luminescence, this reaction was quenched and simultaneously, the Renilla luciferase reaction was initiated by adding 100 μl Stop & Glo Reagent (Promega) to the same well. Then, Renilla luciferase activity was measured using the Glo Max Multi luminometer with two injectors (Promega Corporation). […]

[9] = system: rat BDNF 5′UTR exon 2C; assay: Dual luciferase assay, pN1-exon2C-Fluc in SH-SY5Y cells; format: cell-based; details: undifferentiated SH-SY5Y; GLU 20 μM, NMDA 30 μM, NE 50 μM
Procedure: as §3, §4
Luciferase assay was performed according to the manufacturer's instructions (Promega). At the time of luciferase assay, the growth medium was removed from the cultured cells and a sufficient volume of PBS 1× was applied to wash the surface of the culture vessel. […] After lysis, 100 μl of Luciferase Assay Reagent II (LARII) were dispensed in each well and Firefly luciferase activity was measured using the Glo Max Multi luminometer with two injectors (Promega Corporation).
as §10

[10] = system: rat BDNF 5′UTR exon 8; assay: Dual luciferase assay, pN1-exon8-Fluc in SH-SY5Y cells; format: cell-based; details: undifferentiated SH-SY5Y; BDNF 50 ng/ml, GLU 20 μM, 5-HT 50 μM
Procedure: as §8, §9, §10

[11] = system: BDNF 3′UTR-short; assay: Luciferase assay, pN1-Fluc-3′short in SH-SY5Y cells; format: cell-based, rat; details: transfected SHSY-5Y; GLU 20 μM
Procedure: as §1, §2

[12] = system: rat BDNF 5′UTR exon 7; assay: Dual luciferase assay, pN1-exon7-Fluc in SH-SY5Y cells; format: cell-based; details: undifferentiated SH-SY5Y; NE 50 μM
Procedure: as §8, §9, §10

Molecule: NCCc1ccc(O)c(O)c1 [Dopamine]
- cell survival (MTT viability), neurotrophic effect [1]: small increase in cell survival

- translation of every BDNF exons-containing plasmid, with the exception of those containing exon 2A, 4 and 8 ([2]; 5-HT 50 μM): able to increase the translation
Molecule: NCCc1c[nH]c2ccc(O)cc12 [Serotonin]

Molecule: CN(C)CCCn1cc(C2=C(c3c[nH]c4ccccc34)C(=O)NC2=O)c2ccccc21 [GF, 2-[1-(3-dimethylaminopropyl)-1H-indol-3-yl]-3-(1H-indol-3yl)-maleimide]
- prevention of KCl-induced increase in translation of pN1-exon6-Fluc-3′UTR long [3]: not

Molecule: [Cl-].[K+] [KCl]
- translation of 3′UTR-long-containing transcripts [4]: slightly but not significant increase
- translation of exon 2B-containing transcripts (ratio F-luc/R-Luc) [5]: significantly increase
- translation of exon 4-containing transcripts (ratio F-luc/R-Luc) [6]: significantly increase
- increase in translation of pN1-exon6-Fluc-3′UTR long (Fluc/Rluc ratio, basal = 1.0) ([3]; end of 3 h depolarization with 20 mM KCl): three-fold increase
- translation of exon1-containing transcripts (ratio F-luc/R-Luc) [7]: significantly increase
- expression of exon 3-containing plasmid (ratio F-luc/R-Luc) [8]: induced

Molecule: CC(C)(C)n1nc(-c2ccc(Cl)cc2)c2c(N)ncnc21 [PP2, 1-tert-butyl-3-(4-chlorophenyl)-1H-pyrazolo[3-4]pyrimidin-4-amine]
- prevention of KCl-induced increase in translation of pN1-exon6-Fluc-3′UTR long [3]: completely prevents

Molecule: N[C@@H](CCC(=O)O)C(=O)O [Glutamate, Glutammate]
- translation of exon 2B-containing transcripts (ratio F-luc/R-Luc) [5]: significantly increase
- translation of exon 4-containing transcripts (ratio F-luc/R-Luc) [6]: significantly increase
- translation of exon1-containing transcripts (ratio F-luc/R-Luc) [7]: significantly increase
- expression of exon 2C containing plasmid (ratio F-luc/R-Luc) [9]: able to induce the expression
- response of exon 8-containing plasmid (ratio F-luc/R-Luc) [10]: responsive
- translation of 3′UTR-short-containing transcripts [11]: striking increase

Molecule: Cc1o[nH]c(=O)c1CC(N)C(=O)O (centres unmarked) [AMPA]
- translation of the other BDNF transcripts (other than exon2C) [2]: not stimulated

Molecule: CN([C@@H](Cc1ccc(OS(=O)(=O)c2cccc3cnccc23)cc1)C(=O)N1CCN(c2ccccc2)CC1)S(=O)(=O)c1cccc2cnccc12 [KN62]
- prevention of KCl-induced increase in translation of pN1-exon6-Fluc-3′UTR long [3]: completely prevents

Molecule: CN[C@H](CC(=O)O)C(=O)O [NMDA]
- translation of the other BDNF transcripts (other than exon2C) [2]: not stimulated
- expression of exon 2C containing plasmid (ratio F-luc/R-Luc) [9]: enhancement

Molecule: N#CC(=C(N)Sc1ccccc1N)C(C#N)=C(N)Sc1ccccc1N [U0126, 1,4-diamino-2,3-dicyano-1,4-bis(2-aminophenylthio)butadiene]
- prevention of KCl-induced increase in translation of pN1-exon6-Fluc-3′UTR long [3]: completely prevents

Molecule: NC[C@H](O)c1ccc(O)c(O)c1 [Norepinephrine]
- exon7 reporter expression (ratio F-luc/R-Luc) [12]: increased
- translation of exon 2B-containing transcripts (ratio F-luc/R-Luc) [5]: significantly increase
- translation of exon 4-containing transcripts (ratio F-luc/R-Luc) [6]: significantly increase
- cell survival (MTT viability), neurotrophic effect [1]: small increase in cell survival
- translation of exon1-containing transcripts (ratio F-luc/R-Luc) [7]: significantly increase
- expression of exon 2C containing plasmid (ratio F-luc/R-Luc) [9]: increased

Molecule: CCc1cccc(CC)c1NC(=O)N1Cc2n[nH]c(NC(=O)c3ccc(N4CCN(C)CC4)cc3)c2C1 [Aurora A inhibitor, PHA-680632]
- prevention of KCl-induced increase in translation of pN1-exon6-Fluc-3′UTR long [3]: completely prevents

- translation of the other BDNF transcripts (other than exon2C) [2]: not stimulated
Molecule: N[C@H](C(=O)O)c1cc(O)cc(O)c1 [DHPG]

B1: Brain-derived neurotrophic factor (protein, UniProt P23560 19-247, looked up)
Neurotrophic factor BDNF …: APMKEANIRGQGGLAYPGVRTHGTLESVNGPKAGSRGLTSLADTFEHVIEELLDEDQKVRPNEENNKDADLYTSRVMLSSQVPLEPPLLFLLEEYKNYLDAANMSMRVRRHSDPARRGELSVCDSISEWVTAADKKTAVDMSGGTVTVLEKVPVSKGQLKQYFYETKCNPMGYTKEGCRGIDKRHWNSQCRTTQSYVRALTMDSKKRIGWRFIRIDTSCVCTLTIKRGR
notes: growth and trophic factor of the neurotrophin family, used as agonist at 50 ng/ml
- translation of exon 2B-containing transcripts (ratio F-luc/R-Luc) [5]: significantly increase
- translation of exon 4-containing transcripts (ratio F-luc/R-Luc) [6]: significantly increase
- cell survival (MTT viability), neurotrophic effect [1]: small increase in cell survival
- translation of exon1-containing transcripts (ratio F-luc/R-Luc) [7]: significantly increase
- response of exon 8-containing plasmid (ratio F-luc/R-Luc) [10]: responsive

B2: Neurotrophin-3 (protein, UniProt P20783 139-257, looked up)
Neurotrophin-3: YAEHKSHRGEYSVCDSESLWVTDKSSAIDIRGHQVTVLGEIKTGNSPVKQYFYETRCKEARPVKNGCRGIDDKHWNSQCKTSQTYVRALTSENNKLVGWRWIRIDTSCVCALSRKIGRT
notes: neurotrophin, used at 50 ng/ml
- cell survival (MTT viability), neurotrophic effect [1]: small increase in cell survival
